In the first experiment the target is MRGPRX4 (Homo sapiens, UniProt Q96LA9). Kind of experiment: MRGPR X4 antagonist activity, IP-One Gq HTRF assay in stably transfected HEK cells (versus agonist bilirubin, deoxycholic acid, conjugated bilirubin, urobilin, obeticholic acid or BAR502). It is filed as cell-based. Set-up: expressed in transfected cells; host or cells: HEK cells, stably transfected. The following applies: versus 10 μM Bilirubin agonist; HEK cells expressing human MRGPR X4; read-out: MRGPR4 Antagonist Activity. As for the experimental part:
HEK cells stably transfected to express human MRGPR X4 were maintained in an incubator at 37° C. with 5% CO2 and grown in DMEM media with 10% fetal bovine serum (FBS) and 1% each of sodium pyruvate, Glutamax, penicillin/streptomycin, and Geneticin. HEK cells stably transfected to express mouse MRGPR A1 were maintained in the same incubator and grown in DMEM media with 10% FBS, 1% each of sodium pyruvate, Glutamax, penicillin/streptomycin, Geneticin, and 2.2 mg/mL Hygromycin.
Cells were plated in a 384-well assay plate at 20,000 cells per well in 12 μL of Opti-MEM and kept in an incubator overnight. On the day of the assay, compounds solubilized at 10 mM in DMSO were added as a 10-point curve (10 uM final top concentration with 1:3 serial dilutions) using a Tecan D300E digital dispenser. […] Final concentrations of DMSO were kept consistent across the plate. Plates were incubated in the dark for 1 h at 37° C. and then for 30 minutes at room temperature. IP-1 standards and HTRF detection reagents were added according to the IP-One—Gq Kit purchased from Cisbio (part number 62IPAPEJ) and incubated in the dark for 1 h at room temperature. The plate was read on a Molecular Devices SpectraMax iD5 plate reader. The HTRF ratio was calculated from the raw data and graphed using GraphPad Prism to calculate an IC50 value for each compound.
For orientation: In TR-FRET formats the signal depends on donor and acceptor labels being close together.
Chain of MRGPRX4 (Q96LA9 whole entry): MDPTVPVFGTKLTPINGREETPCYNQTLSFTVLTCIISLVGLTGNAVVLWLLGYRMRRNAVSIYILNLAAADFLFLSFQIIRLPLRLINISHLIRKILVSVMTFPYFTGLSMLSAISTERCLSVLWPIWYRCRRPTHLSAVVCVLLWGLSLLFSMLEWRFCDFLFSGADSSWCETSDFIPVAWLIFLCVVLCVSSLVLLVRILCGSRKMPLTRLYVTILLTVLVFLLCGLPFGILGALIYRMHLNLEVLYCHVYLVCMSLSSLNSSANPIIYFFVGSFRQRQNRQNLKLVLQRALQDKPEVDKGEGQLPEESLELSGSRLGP
As for `O=C(O)c1cccc(COc2cccc(Cl)c2Cl)c1` [Compound 3-4], the IC50 was 100 to 500 nM.

With `O=C(O)c1cccc(COc2ccccc2Cl)c1` [Compound 1-22], the IC50 is > 2500 nM.

For the compound `Cc1ccc(OCc2cccc(C(=O)O)c2)cc1F` [Compound 1-89], the IC50 was in the range of 100 to 500 nM.

Regarding `CCOc1ccccc1OCc1cccc(C(=O)O)c1` [Compound 1-84], the IC50 was in the range of 1000 to 2500 nM.

For `Cc1cc(N2CCCC2)ccc1OCc1cccc(C(=O)O)c1F` [Compound 4-23], the IC50 was 500 to 1000 nM.

Take `O=C(O)c1cccc(COc2ccccc2Cl)c1F` [Compound 4-29]: the IC50 was > 2500 nM.

Consider `Cc1cc(C(F)(F)F)ccc1OCc1cccc(C(=O)O)n1` [Compound 1-127], for which the IC50 is < 100 nM.

Regarding `O=C(O)c1cccc(COc2ccc(C(F)(F)F)cc2C(F)(F)F)c1` [Compound 1-73], the IC50 is < 100 nM.

As for `N#Cc1cc(COc2ccc(Cl)cc2Cl)cc(C(=O)O)c1` [Compound 5-1, 3-cyano-5-((2,4-dichlorophenoxy)methyl)benzoic acid], the IC50 is < 100 nM.

Take `COc1ccc(OCc2cccc(C(=O)O)c2)c(Cl)c1` [Compound 1-92]: the IC50 is 1000 to 2500 nM.

For the compound `COC(=O)c1cccc(COc2cccc(F)c2)c1` [Compound 1-5], the IC50 was 100 to 500 nM.

For `O=C(O)c1cccc(COc2ccccc2C(F)F)c1` [Compound 33-1, 3-((2-(difluoromethyl)phenoxy)methyl)benzoic acid], the IC50 is > 2500 nM.

Take `O=C(O)c1cccc(COc2ccccc2C(F)(F)F)c1` [Compound 1-141]: the IC50 lay within 1000 to 2500 nM.

Turning to `O=C(O)c1ccc(COc2ccc(Cl)cc2Cl)cc1` [Compound 1-113], the IC50 is 500 to 1000 nM.

As for `N#Cc1cc(OCc2cccc(C(=O)O)c2)ccc1Cl` [Compound 1-70], the IC50 fell in the range of 1000 to 2500 nM.

For `Clc1ccc(OCc2cccc(-c3nnn[nH]3)c2)c(Cl)c1Cl` [Compound 17-4], the IC50 is < 100 nM.

For `O=C(O)c1cccc(COc2c(Cl)cccc2Cl)c1` [Compound 1-25], the IC50 is > 2500 nM.

As for `FC(F)(F)c1cc(Cl)ccc1OCc1cccc(-c2nnn[nH]2)c1` [Compound 17-3], the IC50 lay within 100 to 500 nM.

As for `O=C(O)c1cccc(COc2ccc(F)cc2C(F)(F)F)c1` [Compound 1-91], the IC50 lay within 500 to 1000 nM.

Regarding `O=C(O)c1cccc(COc2ccc(Cl)c(Cl)c2F)c1` [Compound 1-149], the IC50 was < 100 nM.

For `O=C(O)c1cccc(COc2cccc3c2CCC3)c1` [Compound 1-33], the IC50 was 1000 to 2500 nM.

Consider `Cc1ccc(OCc2cccc(C(=O)O)c2)c(Cl)c1` [Compound 3-2, 3-((2-chloro-4-methylphenoxy)methyl)benzoic acid], for which the IC50 lay in the range of 500 to 1000 nM.

With `CCCCNC(=O)c1cccc(COc2ccc(C(F)(F)F)cc2Cl)c1` [Compound 52-7], the IC50 is 100 to 500 nM.

Regarding `COC(=O)c1cccc(COc2ccc(OC(F)(F)F)cc2)c1` [Compound 1-6], the IC50 is 1000 to 2500 nM.

Consider `C#Cc1cc(C(F)(F)F)ccc1OCc1cccc(C(=O)O)c1F` [Compound 36-1, 3-((2-ethynyl-4-(trifluoromethyl)phenoxy)methyl)-2-fluorobenzoic acid], for which the IC50 fell in the range of 500 to 1000 nM.

As for `O=C(O)c1cccc(COc2ccc(C(F)(F)F)c(Cl)c2)c1` [Compound 1-118], the IC50 is < 100 nM.

On to `COC(=O)c1cccc(COc2ccc(C(F)(F)F)cc2Cl)n1` [Compound 1-11], for which the IC50 is < 100 nM.

With `O=C(O)c1cccc(COc2ccc3ccsc3c2)c1` [Compound 1-97], the IC50 was in the range of 100 to 500 nM.

Turning to `O=C(O)c1ccccc1COc1ccc(Cl)cc1Cl` [Compound 1-114], the IC50 lay in the range of 1000 to 2500 nM.

For `O=C(N[C@@H](Cc1ccc(O)cc1)C(=O)O)c1cccc(COc2ccc(C(F)(F)F)cc2Cl)c1` [Compound 54-7], the IC50 is 100 to 500 nM.

As for `O=C(O)c1cccc(COc2ccc3ccccc3c2Cl)c1F` [Compound 4-21], the IC50 was < 100 nM.

For the compound `O=C(O)c1cccc(COc2ccc(C(F)(F)F)nc2)c1` [Compound 1-102], the IC50 fell in the range of 1000 to 2500 nM.

As to `O=C(O)c1cccc(COc2cccc(C(F)F)c2)c1` [Compound 1-100], the IC50 was > 2500 nM.

Take `N#Cc1cc(C#Cc2ccc(C(F)(F)F)cc2Cl)cc(C(=O)O)c1` [Compound 60-1, 3-((2-chloro-4-(trifluoromethyl)phenyl)ethynyl)-5-cyanobenzoic acid]: the IC50 is 100 to 500 nM.

With `Cc1cc(Cl)ccc1OCc1cccc(C(=O)O)c1F` [Compound 1-63], the IC50 is < 100 nM.

On to `Cc1ccc(OCc2cccc(C(=O)O)c2)c(F)c1` [Compound 1-77], for which the IC50 fell in the range of 1000 to 2500 nM.

For `O=C(O)c1cncc(COc2ccc(Cl)cc2Cl)n1` [Compound 1-116], the IC50 lay within 500 to 1000 nM.

`O=C(NC1CCCC1)c1cccc(COc2ccc(C(F)(F)F)cc2Cl)c1` [Compound 52-23]: the IC50 fell in the range of 100 to 500 nM.

Consider `CNC(=O)CNC(=O)c1cccc(COc2ccc(C(F)(F)F)cc2Cl)c1` [Compound 52-27], for which the IC50 is 500 to 1000 nM.

With `FC(F)(F)Oc1ccc(OCc2cccc(-c3nnn[nH]3)c2)cc1Cl` [Compound 17-10], the IC50 was < 100 nM.

Regarding `N#Cc1ccc(OCc2cccc(C(=O)O)c2)c(C(F)(F)F)c1` [Compound 1-68], the IC50 is 100 to 500 nM.

`Cc1ccc(C(C)(C)C)c(OCc2cccc(C(=O)O)c2)c1` [Compound 1-88]: the IC50 is 1000 to 2500 nM.

Consider `O=C(O)c1cc(Br)cc(COc2ccc(C(F)(F)F)cc2Cl)n1` [Compound 9-1, 4-bromo-6-((2-chloro-4-(trifluoromethyl)phenoxy)methyl)picolinic acid], for which the IC50 was < 100 nM.

For the compound `O=C(NCCCO)c1cccc(COc2ccc(C(F)(F)F)cc2Cl)c1` [Compound 52-12], the IC50 lay within 100 to 500 nM.

Take `Cc1cc(Cl)ccc1OCc1cccc(-c2nnn[nH]2)c1` [Compound 17-13]: the IC50 is < 100 nM.

With `Cc1ccc(C(=O)O)cc1COc1ccc(Cl)cc1Cl` [Compound 8-2], the IC50 was 1000 to 2500 nM.

In the case of `COC(=O)c1cccc(COc2ccc(N3CCOCC3)cc2)c1` [Compound 1-7], the IC50 lay in the range of 1000 to 2500 nM.

`CCOC(=O)c1cccc(COc2ccc(C(F)(F)F)cc2Cl)n1` [Compound 56-2]: the IC50 is < 100 nM.

Take `CC(C)c1ccc(OCc2cccc(C(=O)O)c2)cc1` [Compound 1-86]: the IC50 fell in the range of 500 to 1000 nM.

In the case of `Cc1noc(-c2cccc(COc3ccc(C(F)(F)F)cc3Cl)c2)n1` [Compound 49-1, 5-(3-((2-chloro-4-(trifluoromethyl)phenoxy)methyl)phenyl)-3-methyl-1,2,4-oxadiazole], the IC50 is > 2500 nM.

Turning to `CNCCNC(=O)c1cccc(COc2ccc(C(F)(F)F)cc2Cl)c1` [Compound 53-1, 3-((2-chloro-4-(trifluoromethyl)phenoxy)methyl)-N-(2-(methylamino)ethyl)benzamide], the IC50 lay in the range of 500 to 1000 nM.

On to `COc1ccc(OCc2cccc(C(=O)O)c2)c2ccccc12` [Compound 1-147], for which the IC50 lay in the range of 1000 to 2500 nM.

Turning to `O=C(O)c1cccc(NC(=O)c2cccc(COc3ccc(C(F)(F)F)cc3Cl)c2)c1` [Compound 54-11], the IC50 was > 2500 nM.

In the case of `O=C(O)c1cc(COc2ccc(Cl)cc2Cl)ccc1F` [Compound 4-3], the IC50 was 100 to 500 nM.

Turning to `CCOC(=O)c1cccc(COc2ccc(C(F)(F)F)cc2Cl)c1F` [Compound 56-1, ethyl 3-((2-chloro-4-(trifluoromethyl)phenoxy)methyl)-2-fluorobenzoate], the IC50 lay in the range of 100 to 500 nM.

Turning to `N#Cc1c(Cl)cccc1OCc1cccc(C(=O)O)c1` [Compound 1-76], the IC50 lay within 100 to 500 nM.

`O=C(O)Cc1cccc(COc2ccc(Cl)cc2Cl)c1` [Compound 64-1, 2-(3-((2,4-dichlorophenoxy)methyl)phenyl)acetic acid]: the IC50 was > 2500 nM.

For `O=C(O)c1cccc(COc2ccc(-n3cccc3)cc2)c1` [Compound 1-80], the IC50 was in the range of 100 to 500 nM.

Turning to `O=C(NC1CCC1)c1cccc(COc2ccc(C(F)(F)F)cc2Cl)c1` [Compound 52-24], the IC50 was in the range of 100 to 500 nM.

Consider `COc1cc(C(=O)O)ccc1OCc1ccc(Cl)cc1` [Compound 1-20], for which the IC50 lay in the range of 1000 to 2500 nM.

On to `O=C(O)c1cccc(COc2ccc(C3CC3)cc2)c1` [Compound 1-46], for which the IC50 lay within 1000 to 2500 nM.

Consider `Cc1c(COc2ccc(Cl)cc2Cl)cccc1C(=O)O` [Compound 4-8], for which the IC50 lay in the range of 100 to 500 nM.

As to `Cc1cc(COc2ccc(C(F)(F)F)cc2Cl)nc(C(=O)O)c1` [Compound 41-2], the IC50 was < 100 nM.

`O=C(O)c1cccc(COc2ccc3ccccc3c2)n1` [Compound 1-30]: the IC50 is < 100 nM.

The same experiment, now with this note: versus 10 μM Bilirubin agonist; read-out: IC50 (Bilirubin agonist).
With `N#Cc1cc(COc2ccc(Cl)cc2Cl)cc(C(=O)O)c1` [Compound 5-1, 3-cyano-5-((2,4-dichlorophenoxy)methyl)benzoic acid], the IC50 is 10 nM.

As for `Clc1ccc(OCc2cccc(-c3nnn[nH]3)c2)c(Cl)c1Cl` [Compound 17-4], the IC50 is 5 nM.

Still in this experiment, the particulars now being: versus 20 μM deoxycholic acid; read-out: IC50 (Deoxycholic Acid agonist).
On to `N#Cc1cc(COc2ccc(Cl)cc2Cl)cc(C(=O)O)c1` [Compound 5-1, 3-cyano-5-((2,4-dichlorophenoxy)methyl)benzoic acid], for which the IC50 was found to be 23 nM.

On to `Clc1ccc(OCc2cccc(-c3nnn[nH]3)c2)c(Cl)c1Cl` [Compound 17-4], for which the IC50 is 6 nM.

The same experiment, now with this note: versus 20 μM obeticholic acid; read-out: IC50 (Obeticholic Acid Agonist).
On to `N#Cc1cc(COc2ccc(Cl)cc2Cl)cc(C(=O)O)c1` [Compound 5-1, 3-cyano-5-((2,4-dichlorophenoxy)methyl)benzoic acid], for which the IC50 was found to be 6 nM.

On to `Clc1ccc(OCc2cccc(-c3nnn[nH]3)c2)c(Cl)c1Cl` [Compound 17-4], for which the IC50 worked out at 8 nM.

The same experiment, now with this note: versus 50 μM urobilin; read-out: IC50 (Urobilin Agonist).
As for `N#Cc1cc(COc2ccc(Cl)cc2Cl)cc(C(=O)O)c1` [Compound 5-1, 3-cyano-5-((2,4-dichlorophenoxy)methyl)benzoic acid], the IC50 was 6 nM.

For `Clc1ccc(OCc2cccc(-c3nnn[nH]3)c2)c(Cl)c1Cl` [Compound 17-4], the IC50 stood at 6 nM.

The same experiment, now with this note: versus 100 μM conjugated bilirubin; read-out: IC50 (Conjugated Bilirubin Agonist).
Turning to `N#Cc1cc(COc2ccc(Cl)cc2Cl)cc(C(=O)O)c1` [Compound 5-1, 3-cyano-5-((2,4-dichlorophenoxy)methyl)benzoic acid], the IC50 is 27 nM.

For the compound `Clc1ccc(OCc2cccc(-c3nnn[nH]3)c2)c(Cl)c1Cl` [Compound 17-4], the IC50 was 7 nM.

These data come from patent publication US11840521B2, “Modulators of Mas-related G-protein receptor X4 and related products and methods” (Escient Pharmaceuticals, Inc., priority 2019, dated 2023).
